Test results reported in PMC9170688, “Gametocyte-specific and all-blood-stage transmission-blocking chemotypes discovered from high throughput screening on Plasmodium falciparum gametocytes” (Communications Biology, 2022).
Several values for one entry are separate records, joined by “and”; a condition that tells them apart may be missing. Identical values can stand only once.

What was measured:
[1] = tested on: P. falciparum strain NF54-hsp70-luc stage V gametocytes fed to Anopheles stephensi mosquitoes; assay: whole plant or invertebrate; format: in vivo, Plasmodium falciparum; details: for transmission blocking in SMFA: 24 h treatment; for luminescence signal of individual mosquitoes (SMFA, Fig. 5): one value per mosquito
Description: The above selected 30 compounds were subjected to a phenotypic male gamete exflagellation assay. This assay measures the viability of male gametocytes by quantitating the final step of maturation into motile microgametes in vitro[24]. This process naturally occurs in the mosquito gut within minutes from the blood meal. The acquisition of time lapse videos of gamete motility in bright field microscopy and the subsequent analysis to count exflagellation centres were performed in an automated HTS format in 384-well plates. The compounds were tested in two independent biological replicates at the concentration of 1 µM. […] The standard membrane feeding assay (SMFA) is used to measure the parasite transmission through mosquito. In this assay, mature stage V gametocytes of the P. falciparum strain NF54-hsp70-luc were treated with 1 and 10 µM of the nine selected compounds for 24 h, added with human red blood cells and serum to achieve a haematocrit of 50% and then fed to mosquitoes. Luminescence was analyzed in the mosquito salivary glands 8 days post-feeding.
SMFA was performed commercially by TropiQ Health Sciences (Nijmegen, The Netherlands). Test samples were diluted in DMSO and then in RPMI medium (Gibco, 51800043) to achieve a final DMSO concentration of 0.1%. Diluted samples were combined with stage V gametocytes from P. falciparum strain NF54-hsp70-luc and incubated for 24 h. Subsequently, human red blood cells and human serum with the sample were added to achieve a haematocrit of 50%. The blood meal was fed to two-day old Anopheles stephensi mosquitoes that were starved the night prior to the blood meal. […] Mosquito infection was analyzed 8 days post-feeding by luminescence measurements of whole mosquitoes as described previously. For each feeder, luminescence intensity was analyzed in 15–24 mosquitoes per feeder (N = 1, n = 15–24). Luminescence background levels were determined from 15–24 uninfected mosquitoes. Controls: vehicle (0.1% DMSO) in duplicate.

[2] = tested on: P. falciparum NF54 hsp86-PpyRE13 gametocytes; assay: P. falciparum gametocyte luminescence assay (PfLuc), line NF54 hsp86-PpyRE13; format: cell-based, Plasmodium falciparum; details: gametocytes, line NF54 HSP86; read-out: Pf Gametocytes NF54 HSP86 (IC50 nM)
Description: (§1) To exclude false positive compounds that may interfere with the click beetle CBG99 luciferase signal and to confirm the activity on gametocytes produced by other P. falciparum lines, we tested the above 638 compounds at a single concentration of 10 µM on gametocytes from two NF54 strain derived lines: pfs16-GFP-PyLUC (Photinus pyralis luciferase under the same pfs16 promoter)[14],[16],[27] and hsp86-PpyRE13 that was generated for this work to express the mutated Photinus pyralis PpyRE13 luciferase in gametocytes under the promoter of the pfhsp86 gene.
(§2) With the selected 84 compounds, the subsequent step aimed at determining the gametocyte inhibition potency and the parasite stage selectivity between the gametocytes and the asexual stages in the NF54 hsp86-PpyRE13. […] Similar data were obtained considering the gametocyte IC50 values measured in the NF54 pfs16-GFP-PyLUC strain (see Supplementary Data 2).
(§3) Parasite gametocyte luminescence assays were performed in 384-well plates (Thermo, 4332, USA) by infected red blood cells seeded at 40 µL/well at a haematocrit of 0.625% for the strain 3D7elo1-pfs16-CBG99, 1.875% for both strains NF54 hsp86-PpyRE13 and NF54 pfs16-GFP-PyLUC. Assay were performed in the medium: 10.44 g/L RPMI 1640 Medium (Gibco, 51800043), 5.95 g/L HEPES (Sigma, H4034), 50 mg/L Hypoxantine (Sigma, 56700), 10% heat inactivated human serum, 10 ml of Neomycin solution (Sigma, N1142) and 2.1 g/L NaHCO3 (Sigma, 144-55-8). Compounds or DMSO as control were pre dispensed on plates, from 10 mM DMSO stock solutions, via an acoustic droplet ejection device (ATS-100, EDC Biosystems) to achieve the final desired concentration. Assay plates were incubated for 48 h at 37 °C in 4% CO2, 3% O2, and 93% N2 modified atmosphere. After incubation, 20 µL/well of a solution of luciferin (Regis, 1-360242-200) potassium/sodium salt (300 µg/ml) are added to the assay plates and read at suitable luminescence detection after 1 min incubation at room temperature. The whole HTS was performed in 7 rounds of 30–80 plates each in two months’ time.

[3] = tested on: P. falciparum NF54 pfs16-GFP-PyLUC gametocytes; assay: P. falciparum gametocyte luminescence assay (PfLuc), line NF54 pfs16-GFP-PyLUC; format: cell-based, Plasmodium falciparum; details: gametocytes, line NF54 pfs16; read-out: Pf Gametocytes NF54 pfs16 (IC50 nM)
Description: as §1, §2, §3

[4] = tested on: P. falciparum NF54 hsp86-PpyRE13 asexual stages; assay: P. falciparum asexual stage assay (pLDH); format: cell-based, Plasmodium falciparum; details: asexual stages, line NF54 Hsp86 PpYRE13; read-out: NF54 Hsp86 PpYRE13 (IC50 nM)
Description: as §2
Parasite proliferation assays were performed in 384-well plates (Thermo, 4332, USA) with a starting parasitemia of 0.25% at a haematocrit of 2% by quantification of parasite lactate dehydrogenase (pLDH). Compounds or DMSO as control were pre dispensed on plates, from 10 mM DMSO stock solutions, via an acoustic droplet ejection device (ATS-100, EDC Biosystems) to achieve de final desired concentration. Assay plates were incubated for 72 h at 37 °C in 4% CO2, 3% O2, and 93% N2 modified atmosphere. After the incubation period, plates are frozen at −80 °C for two h and then thawed at room temperature for 2 h. Then, 50 µL of the developer solution (70 mM Tris-HCl pH 8.0, 0.5% Tween-20, 100 mM Lithium L-Lactate, 125 µM nitro blue tetrazolium, 2 U/ml diaphorase and 100 µM 3-Acetylpyridine Adenine Dinucleotide) are added to each well and let to react for 10 min. Absorbance was then read at 650 nm by a suitable spectrophotometer.

HeLa cells = assay: HeLa cell proliferation assay (CellTiter Glo); format: cell-based, human
Description: In addition, we tested the 84 compounds in a dose-response fashion on HeLa cells to quantitatively monitor their cytotoxicity potential.
HeLa cells (CCL-2, ATCC, USA) were cultured in DMEM without phenol red (Thermo, 11880, USA) + 10% FBS + 1X PenStrep + 1X Gln. They were plated in a 384-well plate (Thermo, 4334-11, USA) to a density of 2000 cells per well and let recover for 4 h at 37 °C, 5% CO2 in a humidified atmosphere. After the recovery, compounds were transferred to assay plates as per compound preparation method. Assay plates were then incubated at 37 °C, 5% CO2 in a humidified atmosphere for 72 h. Cell viability was measured by the CellTiTer Glo (Promega, G8080, USA) as per manufacturer instruction.

[5] = tested on: P. falciparum NF54 male gametocytes (stage V); assay: Male gamete exflagellation assay; format: cell-based, Plasmodium falciparum; details: for Inhibition of male exflagellation at 1 µM: 48 h
Description: The above selected 30 compounds were subjected to a phenotypic male gamete exflagellation assay. This assay measures the viability of male gametocytes by quantitating the final step of maturation into motile microgametes in vitro[24]. This process naturally occurs in the mosquito gut within minutes from the blood meal. The acquisition of time lapse videos of gamete motility in bright field microscopy and the subsequent analysis to count exflagellation centres were performed in an automated HTS format in 384-well plates. The compounds were tested in two independent biological replicates at the concentration of 1 µM. […] The results of this study led to the identification of 16 compounds with anti-exflagellation activity (Fig. 4). […] The standard membrane feeding assay (SMFA) is used to measure the parasite transmission through mosquito. In this assay, mature stage V gametocytes of the P. falciparum strain NF54-hsp70-luc were treated with 1 and 10 µM of the nine selected compounds for 24 h, added with human red blood cells and serum to achieve a haematocrit of 50% and then fed to mosquitoes. Luminescence was analyzed in […] 8 days post-feeding.
Asexual parasites of the NF54 line, kindly obtained from Elena Levashina’s laboratory (Max Plank Institute for Infection Biology, Berlin, Germany), were seeded at 1% total parasitemia and grown for 16 days changing medium every day until development of stage V gametocytes (about 1–2% of stage V gametocytemia). 100 µl of gametocyte culture was seeded in each well of a 96 well-plate and 100 µl of 2× concentration of compounds or DMSO as control were added to each well to achieve the desired final concentration. Assay plates were incubated for 48 h at 37 °C in 4% CO2, 3% O2, and 93% N2 modified atmosphere. After the incubation period, 100 µl of medium were removed from each well and the other 100 µl were transferred to a black imaging 96 well plate (ibidi) containing 100 µl of complete medium supplemented with 40 µM of xanthurenic acid. After 15 min, exflagellation events were captured by three ten-second videos each well with an Olympus IX83 inverted microscope with a UPLSAPO 10× N.A. 0.75 objective (Olympus, Japan), equipped with a Hamamatsu ORCA-Flash 4.0 V3 camera. Each video was analyzed using the Icy bio-image analysis software (http://icy.bioimageanalysis.org/) to count the number of exflagellation events.

[6] = tested on: P. falciparum 3D7elo1-pfs16-CBG99 gametocytes; assay: P. falciparum gametocyte luminescence assay (PfLuc), primary HTS line 3D7elo1-pfs16-CBG99; format: cell-based, Plasmodium falciparum; details: 10 µM MB, Rep1-Rep2
Source text: In this line, the CBG99 luciferase-coding region (from the click beetle Pyrophorus plagiophthalamus) is integrated into the parasite genome and expressed under the control of the pfs16 gametocyte-specific promoter.
Obtaining an accurate gametocyte synchronization with minimal parasite handling is of paramount importance to establish a robust and reliable HTS assay. To this aim, the timing of addition of N-acetyl glucosamine (NAG), used to clear residual asexual stages after appearance of stage I gametocytes, was optimized. […] Using these cultures, different haematocrit percentages (0.625, 1.25 and 2.5%) and two incubation times (48- and 72 h) were tested to identify the optimal luciferase readout.
A collection of 119.059 compounds of the CNCCS library was tested on gametocytes of the 3D7elo1-pfs16-CBG99 strain at 10 µM using the protocol described above. […]
as §3

[7] = tested on: P. falciparum NF54 male gametocytes (stage V); assay: Male gamete exflagellation assay; format: cell-based, Plasmodium falciparum; details: 48 h

CS(=O)(=O)c1ccc(-c2cnc(N)c(-c3ccc(C(F)(F)F)nc3)c2)cc1 [MMV0048, reference compound]
transmission blocking in SMFA ([1]; 1 µM): abolished the parasite transmission | transmission blocking in SMFA ([1]; 10 µM): abolished the parasite transmission

CS(=O)(=O)c1ccc(-c2cnc(N)c(-c3ccc(C(F)(F)F)nc3)c2)cc1 [MMV-048]
luminescence signal of individual mosquitoes (SMFA, Fig. 5) ([1]; compound at 1 µM): 6 and 9 and 5 and 28 and 32 and 4 and 3 and 8 and 58 and 2 and 20 and 83 | luminescence signal of individual mosquitoes (SMFA, Fig. 5) ([1]; compound at 10 µM): 6 and 8 and 5 and 3 and 7

O=S(=O)(NCC1(O)CCOc2ccccc21)c1ccc(Br)s1 (stereo not drawn) [Compound 84, reference compound]
IC50 [2]: 29600 nM | IC50 [3]: 11300 nM | IC50 [4]: > 51200 nM | IC50 (HeLa cells): > 32000 nM | Inhibition of male exflagellation at 1 µM ([5]; Replicate 1): 1.9 | Inhibition of male exflagellation at 1 µM ([5]; Replicate 2): 0 | Exflagellation @ 1 uM (% of DMSO) 1 ([5]; 1 uM, replicate 1): 1.90 % of DMSO | Exflagellation @ 1 uM (% of DMSO) 2 ([5]; 1 uM, replicate 2): 0.00 % of DMSO

CN(C)c1ccc2nc3ccc(=[N+](C)C)cc-3sc2c1 [MB, methylene blue]
Luminescence counts ([6]; 48 h, hematocrit 0.625%): 88 RLU and 72 RLU | Luminescence counts ([6]; 48 h, hematocrit 2.5%): 208 RLU and 224 RLU | Luminescence counts ([6]; 72 h, hematocrit 0.625%): 64 RLU and 56 RLU | Luminescence counts ([6]; 72 h, hematocrit 1.25%): 48 RLU and 56 RLU | Luminescence counts ([6]; 72 h, hematocrit 2.5%): 80 RLU and 88 RLU | Inhibition of male exflagellation at 1 µM ([5]; Replicate 1): 2.985 | Inhibition of male exflagellation at 1 µM ([5]; Replicate 2): 1.163 | Inhibition of male exflagellation at 1 µM ([7]; Replicate 3): 5.8 | Inhibition of male exflagellation at 1 µM ([7]; Replicate 4): 7.7
